According to ChEMBL document CHEMBL5042543, “Bridged Piperidine Analogues of a High Affinity Naphthalene-Based P2Y14R Antagonist” (J Med Chem, 2022):
pIC50, pKi: −log10 of the molar value. ≈ marks a conversion by molar mass, not a printed value.

Legend:
[1] = Distribution coefficient, logD of compound at pH 7.4 by HPLC analysis; format: physicochemical; conditions: octanol/water, read-out: logD
[2] = molecular target: Sigma intracellular receptor 2 (Homo sapiens, UniProt Q5BJF2); experiment: Inhibition of sigma 2 receptor (unknown origin) assessed as binding constant
Sequence of Sigma intracellular receptor 2 (Q5BJF2 whole entry): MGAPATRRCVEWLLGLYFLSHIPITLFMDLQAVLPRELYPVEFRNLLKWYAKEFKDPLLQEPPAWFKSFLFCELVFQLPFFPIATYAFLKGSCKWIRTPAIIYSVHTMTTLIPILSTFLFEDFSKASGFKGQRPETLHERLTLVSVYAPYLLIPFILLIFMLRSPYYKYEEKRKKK

[3] = molecular target: Beta-3 adrenergic receptor (Homo sapiens, UniProt P13945); experiment: Inhibition of adrenergic beta 3 receptor (unknown origin) assessed as binding constant
Sequence of Beta-3 adrenergic receptor (P13945 whole entry): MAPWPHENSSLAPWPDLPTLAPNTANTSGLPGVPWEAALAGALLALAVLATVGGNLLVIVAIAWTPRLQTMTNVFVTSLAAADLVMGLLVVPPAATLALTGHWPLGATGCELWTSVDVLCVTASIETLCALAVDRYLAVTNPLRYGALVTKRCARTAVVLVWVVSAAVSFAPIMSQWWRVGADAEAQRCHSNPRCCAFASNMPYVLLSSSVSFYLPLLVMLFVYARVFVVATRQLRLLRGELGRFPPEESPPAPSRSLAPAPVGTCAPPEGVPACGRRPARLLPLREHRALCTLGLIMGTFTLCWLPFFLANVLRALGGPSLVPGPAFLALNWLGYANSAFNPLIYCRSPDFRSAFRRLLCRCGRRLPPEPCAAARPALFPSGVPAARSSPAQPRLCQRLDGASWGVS

[4] = Aqueous solubility of the compound at pH 4; conditions: buffer
[5] = Aqueous solubility of the compound at pH 7.4; conditions: buffer
[6] = molecular target: D(3) dopamine receptor (Homo sapiens, UniProt P35462); experiment: Inhibition of dopamine D3 receptor (unknown origin) assessed as binding constant
Sequence of D(3) dopamine receptor (P35462 whole entry): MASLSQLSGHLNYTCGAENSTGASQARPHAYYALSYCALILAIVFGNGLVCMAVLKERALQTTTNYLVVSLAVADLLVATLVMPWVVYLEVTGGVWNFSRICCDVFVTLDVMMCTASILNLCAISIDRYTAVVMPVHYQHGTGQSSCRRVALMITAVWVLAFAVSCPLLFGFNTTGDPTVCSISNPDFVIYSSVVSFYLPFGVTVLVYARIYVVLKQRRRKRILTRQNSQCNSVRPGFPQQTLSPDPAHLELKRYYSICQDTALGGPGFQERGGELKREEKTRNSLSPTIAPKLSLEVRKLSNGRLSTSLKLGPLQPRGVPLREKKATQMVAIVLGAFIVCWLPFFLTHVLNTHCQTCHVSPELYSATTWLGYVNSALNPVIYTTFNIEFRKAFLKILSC

[7] = molecular target: Translocator protein (Homo sapiens, UniProt P30536); experiment: Inhibition of TSPO receptor (unknown origin) assessed as binding constant
Sequence of Translocator protein (P30536 whole entry): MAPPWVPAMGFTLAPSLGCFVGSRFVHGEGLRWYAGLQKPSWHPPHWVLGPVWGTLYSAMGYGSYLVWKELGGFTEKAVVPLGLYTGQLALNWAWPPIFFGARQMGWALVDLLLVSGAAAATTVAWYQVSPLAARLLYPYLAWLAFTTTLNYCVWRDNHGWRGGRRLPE

[8] = molecular target: Sigma non-opioid intracellular receptor 1 (Homo sapiens, UniProt Q99720); experiment: Inhibition of sigma 1 receptor (unknown origin) assessed as binding constant
Sequence of Sigma non-opioid intracellular receptor 1 (Q99720 whole entry): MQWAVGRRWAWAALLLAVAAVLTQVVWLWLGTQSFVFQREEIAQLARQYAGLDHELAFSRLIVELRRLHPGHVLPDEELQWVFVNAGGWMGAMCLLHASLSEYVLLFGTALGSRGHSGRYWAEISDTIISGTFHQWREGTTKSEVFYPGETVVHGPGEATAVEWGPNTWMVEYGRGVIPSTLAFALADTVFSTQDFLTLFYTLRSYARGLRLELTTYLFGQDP

[9] = molecular target: T1, liver carboxylesterase (Sus scrofa, UniProt Q29550); experiment: Stability of the compound in aqueous medium at pH 7.4 assessed as half life in presence of porcine liver esterase; format: physicochemical; conditions: pig
T1 sequence (Q29550 whole entry): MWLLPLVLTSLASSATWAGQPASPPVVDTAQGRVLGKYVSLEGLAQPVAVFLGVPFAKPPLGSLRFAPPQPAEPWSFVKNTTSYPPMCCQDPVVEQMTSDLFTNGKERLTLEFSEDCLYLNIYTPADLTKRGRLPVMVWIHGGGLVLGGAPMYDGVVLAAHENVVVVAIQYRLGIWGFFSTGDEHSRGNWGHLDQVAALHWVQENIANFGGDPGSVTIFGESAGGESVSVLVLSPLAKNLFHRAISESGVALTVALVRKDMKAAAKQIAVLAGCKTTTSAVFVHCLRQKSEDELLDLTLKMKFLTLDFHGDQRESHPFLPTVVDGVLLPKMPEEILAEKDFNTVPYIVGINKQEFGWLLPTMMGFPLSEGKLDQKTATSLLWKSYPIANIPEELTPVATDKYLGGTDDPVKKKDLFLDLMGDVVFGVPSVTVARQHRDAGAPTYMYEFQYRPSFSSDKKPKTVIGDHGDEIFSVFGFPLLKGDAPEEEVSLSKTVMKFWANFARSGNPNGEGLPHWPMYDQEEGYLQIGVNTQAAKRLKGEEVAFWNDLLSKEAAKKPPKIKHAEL

[10] = molecular target: D(1B) dopamine receptor (Homo sapiens, UniProt P21918); experiment: Inhibition of dopamine D5 receptor (unknown origin) assessed as binding constant
Sequence of D(1B) dopamine receptor (P21918 whole entry): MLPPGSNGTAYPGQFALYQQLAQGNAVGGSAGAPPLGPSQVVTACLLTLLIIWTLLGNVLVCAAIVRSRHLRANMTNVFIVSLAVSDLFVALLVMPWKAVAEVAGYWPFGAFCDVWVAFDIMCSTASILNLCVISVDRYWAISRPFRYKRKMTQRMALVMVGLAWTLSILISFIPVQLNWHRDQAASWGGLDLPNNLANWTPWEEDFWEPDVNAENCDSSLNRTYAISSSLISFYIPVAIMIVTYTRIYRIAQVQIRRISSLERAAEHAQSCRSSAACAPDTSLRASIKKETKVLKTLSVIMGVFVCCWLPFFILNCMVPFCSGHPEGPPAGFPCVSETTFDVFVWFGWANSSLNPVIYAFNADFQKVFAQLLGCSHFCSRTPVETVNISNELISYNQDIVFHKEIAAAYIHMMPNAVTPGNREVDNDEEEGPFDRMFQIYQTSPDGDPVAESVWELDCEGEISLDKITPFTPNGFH

[11] = molecular target: T2, P2Y purinoceptor 14 (Mus musculus, UniProt Q9ESG6); experiment: Inhibition of fluorescent antagonist binding to mouse P2Y14R expressed in HEK293 cells preincubated for 30 mins followed by addition of 6-amino-9-(2-carboxy-4-((6-(4-(4-(4-(4-(3-carboxy-6-(4-(trifluoromethyl)phenyl)naphthalen-1-yl)phenyl)piperidin-1-yl)butyl)-1H-1,2,3-triazol-1-yl)hexyl)carbamoyl)phenyl)-3-iminio-5-sulfo-3H-xanthene-4-sulfonate incubated for 30 mins by BD FACSCalibur flow …; format: cell-based
T2 sequence (Q9ESG6 whole entry): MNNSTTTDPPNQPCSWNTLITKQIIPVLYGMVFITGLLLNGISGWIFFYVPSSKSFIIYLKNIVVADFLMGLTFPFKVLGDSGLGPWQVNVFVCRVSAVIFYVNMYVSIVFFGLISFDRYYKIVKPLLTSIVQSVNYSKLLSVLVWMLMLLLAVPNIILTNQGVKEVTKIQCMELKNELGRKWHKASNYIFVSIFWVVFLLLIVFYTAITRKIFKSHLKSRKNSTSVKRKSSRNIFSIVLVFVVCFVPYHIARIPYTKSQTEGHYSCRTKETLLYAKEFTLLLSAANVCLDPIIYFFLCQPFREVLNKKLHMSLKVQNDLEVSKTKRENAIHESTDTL

[12] = molecular target: T3, P2Y purinoceptor 14 (Homo sapiens, UniProt Q15391); experiment: cell-based
T3 sequence (Q15391 whole entry): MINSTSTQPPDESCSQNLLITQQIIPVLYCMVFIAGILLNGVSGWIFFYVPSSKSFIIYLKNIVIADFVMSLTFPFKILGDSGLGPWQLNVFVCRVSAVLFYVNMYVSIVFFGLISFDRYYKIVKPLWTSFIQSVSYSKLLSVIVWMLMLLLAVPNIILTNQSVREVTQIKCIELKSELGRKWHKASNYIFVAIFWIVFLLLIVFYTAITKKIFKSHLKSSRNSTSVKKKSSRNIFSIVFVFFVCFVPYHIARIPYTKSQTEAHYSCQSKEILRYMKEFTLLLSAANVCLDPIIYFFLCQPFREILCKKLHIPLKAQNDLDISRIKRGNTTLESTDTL
Description: Inhibition of fluorescent antagonist binding to human P2Y14R expressed in CHO cells preincubated for 30 mins followed by 6-amino-9-(2-carboxy-4-((6-(4-(4-(4-(4-(3-carboxy 6-(4-(trifluoromethyl)phenyl)naphthalen-1-yl)phenyl)piperidin-1-yl)butyl)-1H-1,2,3-triazol-1-yl)hexyl)carbamoyl)phenyl)-3-iminio-5-sulfo-3H-xanthene-4-sulfonate addition and measured after 30 mins by BD FACSCalibur flow cytometry analysis

N[C@@H]1C[C@H](C(=O)O)C[C@H]1c1ccc(-c2cc(C(=O)O)cc3cc(-c4ccc(C(F)(F)F)cc4)ccc23)cc1
logD [1]: -0.48

O=C(O)c1cc(-c2ccc([C@H]3C[C@H]4C[C@@H]3CN4)cc2)c2ccc(-c3ccc(C(F)(F)F)cc3)cc2c1 (racemic)
logD [1]: 2 | pKi [2]: 6.19 | pKi [3]: < 6.00 | solubility [4]: 2.73 µg/mL (≈ 5.6 µM) | solubility [5]: 0.47 µg/mL (≈ 0.964 µM)

O=C(O)c1cc(-c2ccc(C3=CC4CCC(C3)N4)cc2)c2ccc(-c3ccc(C(F)(F)F)cc3)cc2c1 (racemic)
logD [1]: 2.3

O=C(O)c1cc(-c2ccc(C34CCN(CC3)CC4)cc2)c2ccc(-c3ccc(C(F)(F)F)cc3)cc2c1
logD [1]: 4.2 | solubility [4]: 1.5 µg/mL (≈ 2.99 µM) | solubility [5]: 0.55 µg/mL (≈ 1.1 µM)

N[C@H]1C[C@@H](CO)[C@H](c2ccc(-c3cc(C(=O)O)cc4cc(-c5ccc(C(F)(F)F)cc5)ccc34)cc2)C1
logD [1]: 0.96 | pKi [6]: 6.48 | pKi [7]: 5.74 | pKi [2]: 5.96 | pKi [3]: < 6.00 | pKi [8]: 5.89

CC(=O)N1C[C@@H]2C[C@H]1C[C@H]2c1ccc(-c2cc(C(=O)OCC(=O)N(C)C)cc3cc(-c4ccc(C(F)(F)F)cc4)ccc23)cc1
half-life [9]: > 72 h

O=C(O)c1cc(-c2ccc([C@@H]3C[C@@H]4C[C@H]3CN4)cc2)c2ccc(-c3ccc(C(F)(F)F)cc3)cc2c1
pKi [6]: 6.00 | pKi [7]: 5.74 | pKi [2]: 5.92 | pKi [10]: < 6.00 | pKi [3]: < 6.00 | pKi [8]: 5.68 | pIC50 [11]: 7.87

O=C(O)c1cc(-c2ccc([C@@H]3C[C@@H]4C[C@H]3C(=O)N4)cc2)c2ccc(-c3ccc(C(F)(F)F)cc3)cc2c1
logD [1]: 0.49 | pKi [2]: 5.72 | pKi [3]: < 6.00 | pKi [8]: 5.49

O=C(O)c1cc(-c2ccc([C@@]3(O)C[C@H]4CC[C@@H](C3)N4)cc2)c2ccc(-c3ccc(C(F)(F)F)cc3)cc2c1
logD [1]: 1.2

CC(=O)N1C[C@@H]2C[C@H]1C[C@H]2c1ccc(-c2cc(C(=O)O)cc3cc(-c4ccc(C(F)(F)F)cc4)ccc23)cc1 (racemic)
logD [1]: 0.92 | solubility [4]: 0.13 µg/mL (≈ 0.245 µM) | solubility [5]: 2.53 µg/mL (≈ 4.78 µM)

O=C(O)c1cc(-c2ccc([C@@H]3C[C@H]4CN[C@@H]3C4)cc2)c2ccc(-c3ccc(C(F)(F)F)cc3)cc2c1
logD [1]: 2.1 | pKi [2]: 6.00 | pIC50 [11]: 7.04

O=C(O)c1cc(-c2ccc([C@H]3C[C@H]4C[C@@H]3NC4=O)cc2)c2ccc(-c3ccc(C(F)(F)F)cc3)cc2c1
pKi [7]: 5.85 | pKi [2]: 5.85 | pKi [10]: < 6.00 | pKi [3]: < 6.00 | pKi [8]: 5.59

O=C(O)c1cc(-c2ccc([C@@]3(O)C[C@H]4CC[C@@H]3CN4)cc2)c2ccc(-c3ccc(C(F)(F)F)cc3)cc2c1 (racemic)
logD [1]: 0.96 | pIC50 [12]: 7.81

N[C@@H]1C[C@H](C(=O)O)[C@@H](c2ccc(-c3cc(C(=O)O)cc4cc(-c5ccc(C(F)(F)F)cc5)ccc34)cc2)C1
pKi [2]: 5.70

O=C(O)c1cc(-c2ccc([C@@H]3CCN[C@@H]4C[C@@H]43)cc2)c2ccc(-c3ccc(C(F)(F)F)cc3)cc2c1 (racemic)
logD [1]: 1.8 | solubility [4]: 0.24 µg/mL (≈ 0.492 µM) | solubility [5]: 0.05 µg/mL (≈ 0.103 µM)

O=C(O)c1cc(-c2ccc(C3[C@H]4CC[C@H]3CNC4)cc2)c2ccc(-c3ccc(C(F)(F)F)cc3)cc2c1 (some centres not stated)
logD [1]: 3 | pIC50 [12]: 6.16 | solubility [4]: 0.32 µg/mL (≈ 0.638 µM) | solubility [5]: 0.16 µg/mL (≈ 0.319 µM)

N[C@H]1C[C@@H](C(=O)O)[C@H](c2ccc(-c3cc(C(=O)O)cc4cc(-c5ccc(C(F)(F)F)cc5)ccc34)cc2)C1
logD [1]: -0.57

N[C@@H]1C[C@H](CO)[C@@H](c2ccc(-c3cc(C(=O)O)cc4cc(-c5ccc(C(F)(F)F)cc5)ccc34)cc2)C1
pKi [2]: 6.00
